From ChEMBL document CHEMBL3596102, “Anti-bacterial glycosyl triazoles - Identification of an N-acetylglucosamine derivative with bacteriostatic activity against Bacillus” (2014) come the findings set out here.

Values after ≈ are worked out from the molar mass of the structure shown. Active and inactive are the calls of the source.

As usually defined, the MIC is the smallest concentration in the dilution series that meets the test's criterion for growth inhibition.

Experiment [1] has as its system Bacillus cereus. The experiment can be described thus: Antibacterial activity against Bacillus cereus assessed as inhibition of bacterial growth after 4 hrs by resazurin microtiter assay. Format: functional. (Alamar Blue is a resazurin reagent that responds to reducing activity.)
Experiment [2] deals with Bacillus cereus. The experiment can be described thus: Bacteriostatic activity against Bacillus cereus assessed as colony count at MIC after 4 hrs by resazurin microtiter assay (reference value: 2.67 +/-1.53x10^8 CFU/ml). Format: functional.
In experiment [3] the test system is Bacillus subtilis. The experiment can be described thus: Antibacterial activity against Bacillus subtilis ATCC 11775 assessed as inhibition of bacterial growth after 4 hrs by resazurin microtiter assay. Format: functional. The following applies: ATCC 11775, 4 h.
Experiment [4] relates to Bacillus subtilis. The experiment is described as follows: Induction of disrupted cell division in Bacillus subtilis ATCC 11775 assessed as phenotype with highly elongated cells and the appearance of chains of cells at 0.8xMIC after 2.5 hrs by phase contrast microscopy. Format: functional, organism-based.
Experiment [5] has as its system Bacillus subtilis. The experiment can be described thus: Inhibition of GlcNAcase in Bacillus subtilis ATCC 11775 assessed as inhibition of nitrophenol release using beta-p-nitrophenyl GlcNAc as substrate at 250 uM after 16 hrs by Spectromax 190 microtitre plate reader.
For experiment [6], the system named is Bacillus subtilis. The experiment is described as follows: Inhibition of GlcNAcase in Bacillus subtilis ATCC 11775 assessed as inhibition of nitrophenol release using beta-p-nitrophenyl GlcNAc as substrate after 16 hrs by Spectromax 190 microtitre plate reader.
Experiment [7] deals with Bacillus subtilis. The experiment can be described thus: Bacteriostatic activity against Bacillus subtilis ATCC 11775 assessed as colony count at MIC after 4 hrs by resazurin microtiter assay (reference value: 9.40 +/-2.88x10^7 CFU/ml). Format: functional.

As for `COc1ccc(C(C(=O)NCc2ccccc2)N(Cc2ccccc2)C(=O)c2cn([C@@H]3O[C@H](CO)[C@@H](O)[C@H](O)[C@H]3NC(C)=O)nn2)cc1` (some centres not stated), the MIC with Bacillus cereus [1] was determined as 60 µM (≈ 39.5 µg/mL). The Activity in the experiment with Bacillus cereus [2] is recorded as 7 ×10⁸ CFU/ml.
Take `CCCCNC(=O)C(C1CCCCC1)N(Cc1cn([C@@H]2O[C@H](CO)[C@@H](O)[C@H](O)[C@H]2NC(C)=O)nn1)C(=O)c1ccccc1I` (some centres not stated): in the experiment with Bacillus subtilis [3], the MIC was 63 µM (≈ 45.8 µg/mL). Besides, the outcome in the experiment with Bacillus subtilis [4] was Active. The inhibition result in the experiment with Bacillus subtilis [5] is “Active”. Moreover, in the experiment on Bacillus subtilis [6], the inhibition result was “Dose-dependent effect”. The Activity in the experiment on Bacillus subtilis [7] worked out at 8.5 ×10⁷ CFU/ml.
